This is an account of results in patent US5726325A, “Tricyclic compounds” (Kyowa Hakko Kogyo Co., Ltd., priority 1995, dated 1998).

Assay [1] deals with detrusor muscle. In words: Test Example 1: relaxation of guinea pig bladder strips contracted with 50 mM KCl. The format is cell-based, guinea pig (male albino Hartley). The following applies: Cavia porcellus; contraction induced by 50 mM KCl; concentration decreasing detrusor contraction by 50%. The source says:
(§1) The activity of Compound (I) as a smooth muscle relaxant which is useful as a therapeutic agent for urinary incontinence can be observed, for example, using the following tests. In the following Test Examples 1 and 2, "IC50 " means the concentration of a test compound which induces the decrease in the contraction of detrusor muscle by 50%.
(§2) Male albino Hartley guinea pigs (350-550 g) were used as test animals. Each animal was exsanguinated to death under pentobarbital sodium anesthesia. The lower abdominal cavity was opened and its bladder was positioned. The connective tissue and the fat tissue around the bladder were removed, and the bladder was cleaned. After two pelvic nerves on the surface of the abdominal side of the bladder were dissected, the bladder was taken out on the entrance of ureter. The bladder was washed with a Krebs-Henseleit buffer [composition (mM): NaCl 118, KCl 4.7, MgSO4 1.2, KH2 PO4 1.2, CaCl2 2.5, NaHCO3 25, and D-glucose 11.1], and then put on a gauze patch soaked in the buffer in a Petri dish. The dome and the trigone of the bladder were dissected and discarded. The back of the bladder was cut vertically in the middle with scissors, and the bladder was put flat on the gauze patch. The dome tip and the side of the trigone of the bladder were dissected and discarded, and the mucosa of the bladder was removed. The back of the bladder was cut vertically to get 6 strips which are ca. 2.0 mm wide and ca. 10 mm long.
(§3) One end of each strip was fixed on a plastic supporter rod, and the other end was fixed on a clip connected to a suture thread. The supporter was fixed in 20 ml of an organ bath and the suture thread connected to the clip was fixed on a force-displacement transducer (NIHON KODEN TB-611T). The tissue was suspended in a Krebs-Henseleit buffer, and the bath solution was warmed to 37° C. and bubbled with a gas mixture of 5% CO2 and 95% O2. The pH of the solution was adjusted to about 7.4. The transducer was connected to a polygraph (NIHON KODEN AP-621G), and the change of tension was recorded on a recorder (YOKOGAWA type 3066). The polygraph was graduated by 0.5 g/cm.
After the tissue was incubated in the buffer for 15 minutes without preloading, tension was added thereto for about one hour. The preloading tension added was 1.5 g and it was relaxed to about 1 g. The tissue was washed at intervals of 15 minutes and the tension was adjusted to 1.5 g just before washing. The tension of the tissue was adjusted to be a steady state at 1 g. After this equilibrium time, 50 mM KCl (the whole content in the bath) was added, and the tissue was washed 10 minutes later. KCl was added to the tissue at intervals of 30 minutes, followed by washing 10 minutes later, and KCl was applied repeatedly until the developed tension induced by KCl becomes constant. When the tissue was confirmed to contract constantly by the application of KCl and relax to the steady state after washing, 50 mM KCl was applied again. After the tissue reached the steady state and the base line was obtained, a test compound was applied by the cumulative method (half-logarithmic incremence). The contact time at each concentration was 30 minutes. The activity of the compound was expressed as the maximum relaxation rate (%) of the tension induced by the agonist.

For another assay, the system named is bladder. The assay can be described thus: Test Example 4: micturition contraction interval in rats under partial restraint, oral. It is filed as in vivo, rat (male SD strain). The note with it: Rattus norvegicus, 1.0 mg/kg oral, pre-administration = 100, second part of Table 4. The source says:
As a control compound, cromakalim was used.

In assay [2] the test system is detrusor muscle. In words: Test Example 2: relaxation of guinea pig bladder strips, rhythmical contraction induced by 15 mM KCl. It is filed as cell-based, guinea pig (male albino Hartley). The following applies: Cavia porcellus, concentration decreasing detrusor contraction by 50%.
Source text: as §1, §2, §3
The effect of a smooth muscle relaxant varies with the concentration of KCl based on the difference of an action mechanism. In the following Test Example, KCl was used at a concentration different from that in Test Example 1.
A sample of the excised bladder was prepared in the same manner as in Test Example 1, and the tension of the preparation was measured. After the tension of the tissue was adjusted to be a steady state at 1 g, 15 mM KCl was applied. After the rhythmical contraction was confirmed to appear by KCl, the tissue was washed. Then, 15 mM KCl was applied again. After the rhythmical contraction took place constantly and the tissue reached the steady state, a test compound was applied by the cumulative method (half-logarithmic incremence). The contact time at each concentration was 30 minutes. The activity of the compound was expressed as the maximum relaxation rate (%) of the tension induced by the agonist.

Usually IC50 stands for the concentration that inhibits the measured activity by half. Read a low IC50 as higher potency. As for `CC(O)(C(=O)Nc1ccc2c(c1)OCc1ccccc1C2=O)C(F)(F)F` (centres unmarked) [Compound 2, 3-(3,3,3-Trifluoro-2-hydroxy-2-methylpropanoylamino)-6,11-dihydrodibenz[b,e]oxepin-11-one], the IC50 in the assay with detrusor muscle [1] turned out to be 3.6 µM; with detrusor muscle [2] it was 3.4 µM. Further, the response vs control in vivo at 1 mg/kg in the assay with bladder (1 hr after administration) amounted to 121 ± 6.2%; in the assay with bladder (2 hr after administration) it was 135 ± 12.3%; with bladder (3 hr after administration), 144 ± 16.3%; in the assay on bladder (4 hr after administration), 141 ± 15.6%; with bladder (5 hr after administration), 145 ± 16%.

On to `CC(O)(C(=O)Nc1ccc2c(c1)C(=O)c1ccccc1-2)C(F)(F)F` (centres unmarked) [Compound 5, 2-(3,3,3-Trifluoro-2-hydroxy-2-methylpropanoylamino)fluoren-9-one], for which the concentration for half-maximal inhibition (IC50) stood at 8 µM in the assay on detrusor muscle [1] and 2.1 µM in the assay on detrusor muscle [2]. For the same compound, the response vs control in vivo at 1 mg/kg in the assay on bladder (1 hr after administration) was 112 ± 7%; with bladder (2 hr after administration), 136 ± 16.5%; in the assay with bladder (3 hr after administration) it was 137 ± 14.5%; in the assay on bladder (4 hr after administration), 132 ± 9.5%; with bladder (5 hr after administration), 131 ± 17.7%.

Consider `CC(O)(C(=O)Nc1ccc2c(c1)OCc1ccsc1C2=O)C(F)(F)F` (centres unmarked) [Compound 8, 7-(3,3,3-Trifluoro-2-hydroxy-2-methylpropanoylamino)-4,10-dihydrothieno[3,2-c][1]benzoxepin-10-one], for which the figures for the IC50 in the assay with detrusor muscle [1] and with detrusor muscle [2] were 5.2 µM and 0.5 µM, respectively. Besides, the response vs control in vivo at 1 mg/kg in the assay with bladder (1 hr after administration) stood at 130 ± 9.3%; in the assay with bladder (2 hr after administration) it was 142 ± 12.6%; with bladder (3 hr after administration) it was 144 ± 8.8%; in the assay with bladder (4 hr after administration) it was 162 ± 14.6%; with bladder (5 hr after administration) it was 189 ± 19.6%.

For `CC(O)(C(=O)Nc1cccc2c1C(=O)c1ccoc1CO2)C(F)(F)F` (centres unmarked) [Compound 9, 5-(3,3,3-Trifluoro-2-hydroxy-2-methylpropanoylamino)-4,10-dihydrofuro[2,3-c][1]benzoxepin-4-one], the IC50 in the assay on detrusor muscle [1] came out at 4.3 µM; in the assay on detrusor muscle [2] it was 4.6 µM. Further, the response vs control in vivo at 1 mg/kg in the assay on bladder (1 hr after administration) is 123 ± 6.8%; in the assay on bladder (2 hr after administration), 131 ± 9.3%; in the assay on bladder (3 hr after administration), 133 ± 9.1%; in the assay with bladder (4 hr after administration), 145 ± 10%; with bladder (5 hr after administration), 155 ± 12.2%.

As to `CC(O)(C(=O)Nc1cccc2c1C(=O)c1ccoc1CS2)C(F)(F)F` (centres unmarked) [Compound 42, 5(3,3,3-Trifluoro-2-hydroxy-2-methylpropanoylamino)-4,10-dihydrofuro[2,3-c][1]benzothiepin-4-one], the IC50 with detrusor muscle [1] is 4.7 µM; in the assay on detrusor muscle [2], 1.5 µM.

On to `CC(O)(C(=O)Nc1ccc2c(c1)SCc1occc1C2=O)C(F)(F)F` (centres unmarked) [Compound 43, 7-(3,3,3-Trifluoro-2-hydroxy-2-methylpropanoylamino)-4,10-dihydrofuro[2,3-c][1]benzothiepin-4-one], for which the IC50 in the assay on detrusor muscle [1] was 3.5 µM; in the assay with detrusor muscle [2], 2.1 µM.

For `CC(O)(C(=O)Nc1ccc2c(c1)SCc1ccsc1C2=O)C(F)(F)F` (centres unmarked) [Compound 45, 7-(3,3,3-Trifluoro-2-hydroxy-2-methylpropanoylamino)-4,10-dihydrothieno[3,2-c][1]benzothiepin-10-one], the values for the IC50 in the assay with detrusor muscle [1] and with detrusor muscle [2] were more than 10 µM and 2.5 µM, respectively.

For the compound `CC(O)(C(=O)Nc1ccc2c(c1)[S+]([O-])Cc1ccccc1C2=O)C(F)(F)F` (centres unmarked) [Compound 49, 5-Oxo-3-(3,3,3-trifluoro-2-hydroxy-2-methylpropanoylamino)-6,11-dihydrodibenzo[b,e]thiepin-11-one], the IC50 was 7.8 µM in the assay with detrusor muscle [1] and 4.1 µM with detrusor muscle [2].

For the compound `CC(O)(C(=O)Nc1ccc2c(c1)CCc1ccccc1C2=O)C(F)(F)F` (centres unmarked) [Compound 54, 2-(3,3,3-Trifluoro-2-hydroxy-2-methylpropanoylamino)-10,11-dihydro-5H-dibenzo[a,d]cyclohepten-5-one], the half-maximal inhibitory concentration (IC50) with detrusor muscle [1] is 3.8 µM; in the assay on detrusor muscle [2], more than 10 µM.

On to `CC(O)(C(=O)Nc1ccc2c(c1)CCc1ncccc1C2=O)C(F)(F)F` (centres unmarked) [Compound 59, 8-(3,3,3-Trifluoro-2-hydroxy-2-methylpropanoylamino)-10,11-dihydro-5H-benzo[4,5]cyclohepta[1,2-b]pyridin-5-one], for which the values for the IC50 with detrusor muscle [1] and in the assay on detrusor muscle [2] were more than 10 µM and 5 µM, respectively.

Regarding `CC(O)(C(=O)Nc1cccc2ccc3ccccc3c(=O)c12)C(F)(F)F` (centres unmarked) [Compound 60, 4-(3,3,3-Trifluoro-2-hydroxy-2-methylpropanoylamino)-5H-dibenzo[a,d]cyclohepten-5-one], the IC50 was more than 10 µM with detrusor muscle [1] and 4.1 µM in the assay on detrusor muscle [2].

Consider `CC(O)(C(=O)Nc1ccc2ccc3ccccc3c(=O)c2c1)C(F)(F)F` (centres unmarked) [Compound 61, 3-(3,3,3-Trifluoro-2-hydroxy-2-methylpropanoylamino)-5H-dibenzo[a,d]cyclohepten-5-one], for which the IC50 was determined as 3.2 µM with detrusor muscle [1] and 2.3 µM with detrusor muscle [2].

As to `CC(O)(C(=O)Nc1ccc2c(=O)c3ccccc3ccc2c1)C(F)(F)F` (centres unmarked) [Compound 62, 2-(3,3,3-Trifluoro-2-hydroxy-2-methylpropanoylamino)-5H-dibenzo[a,d]cyclohepten-5-one], the half-maximal inhibitory concentration (IC50) was 9.3 µM in the assay with detrusor muscle [1] and more than 10 µM in the assay on detrusor muscle [2].

As to `CC(O)(C(=O)Nc1cccc2ccc3ccsc3c(=O)c12)C(F)(F)F` (centres unmarked) [Compound 63, 9-(3,3,3-Trifluoro-2-hydroxy-2-methylpropanoylamino)-10H-benzo[5,6]cyclohepta[1,2-b]thiophen-10-one], the figures for the IC50 in the assay on detrusor muscle [1] and with detrusor muscle [2] were 3.3 µM and more than 10 µM, respectively.

For the compound `CC(O)(C(=O)Nc1ccc2c(=O)c3sccc3ccc2c1)C(F)(F)F` (centres unmarked) [Compound 65, 7-(3,3,3-Trifluoro-2-hydroxy-2-methylpropanoylamino)-10H-benzo[5,6]cyclohepta[1,2-b]thiophen-10-one], the IC50 came out at 4.6 µM in the assay on detrusor muscle [1] and 2.3 µM in the assay with detrusor muscle [2].

With `CC(O)(C(=O)Nc1cccc2ccc3sccc3c(=O)c12)C(F)(F)F` (centres unmarked) [Compound 66, 5-(3,3,3-Trifluoro-2-hydroxy-2-methylpropanoylamino)-4H-benzo[4,5]cyclohepta[1,2-b]thiophen-4-one], the results for the concentration for half-maximal inhibition (IC50) in the assay with detrusor muscle [1] and in the assay with detrusor muscle [2] were 1.4 µM and 2.1 µM, respectively.

`CC(O)(C(=O)Nc1cccc2ccc3ccoc3c(=O)c12)C(F)(F)F` (centres unmarked) [Compound 67, 9-(3,3,3-Trifluoro-2-hydroxy-2-methylpropanoylamino)-10H-benzo[5,6]cyclohepta[1,2-b]furan-10-one]: the IC50 in the assay on detrusor muscle [1] worked out at 6.9 µM; with detrusor muscle [2], 3.8 µM.

Consider `CC(O)(C(=O)Nc1ccc2c(=O)c3occc3ccc2c1)C(F)(F)F` (centres unmarked) [Compound 68, 7-(3,3,3-Trifluoro-2-hydroxy-2-methylpropanoylamino)-10H-benzo[5,6]cyclohepta[1,2-b]furan-10-one], for which the results for the concentration for half-maximal inhibition (IC50) in the assay on detrusor muscle [1] and in the assay on detrusor muscle [2] were more than 10 µM and 3.5 µM, respectively.
